“And” between values parts separate entries of the source, which are not always exact repeats. Identical values can stand only once.

Assay [1] concerns the target T1, GST–PCTAIRE-1 (Homo sapiens, UniProt Q00536).
T1 construct: made in house; host or cells: HEK293 cells, transient transfection with pEBG6P
The assay is described as follows: In vitro phosphotransferase (kinase) assay of purified GST–PCTAIRE-1 on peptide substrates. Format: biochemical. To be noted: 1 μg GST–PCTAIRE-1, peptide 0-100 μM, mean ± SEM. As for the experimental part:
(§1) HEK293 cells were transfected with pEBG6P encoding GST-tagged human PCTAIRE-1 and harvested 36 h later as described above. GST–PCTAIRE-1 was isolated by batch-wise purification using Glutathione-Sepharose 4B. Briefly, lysates were incubated with equilibrated resin for 1 h at 4 °C, washed extensively with lysis buffer and eluted with 20 mM reduced glutathione in 50 mM Tris–HCl pH 8, 0.27 M sucrose, 0.1 mM EGTA and 1 mM DTT. Protein concentration was estimated by densitometry of Coomassie-stained gels using BSA standards. PCTAIRE-1 preparations were snap-frozen in N2(l) and stored at − 80 °C.
(§2) Fig. 1 Determination of PCTAIRE-1 optimal substrate motif. […] (B) GST–PCTAIRE-1 WT/KD was prepared as described in (A) and the optimal substrate motif determined by positional scanning peptide library screening (PSPL) as described in Materials and methods. (C) The activity of GST–PCTAIRE-1 (1 μg) and CDK2–cyclin A2 (10 ng) was assayed against a panel of CDK-tide derivatives (concentration fixed at 250 μM) based on the results of the degenerate library screen (modifications are underlined). Results are expressed as mean ± SEM and are representative of 3 independent experiments.
(§3) Purified rPCTAIRE-1, rCDK2–cyclin A2 or immune complexes isolated from cell/tissue lysates were assayed for phosphotransferase activity in a final assay volume of 50 μl containing 50 mM HEPES pH 7.5, 0.1 mM EGTA, 10 mM Mg(OAc)2, 0.1 mM [γ-^32P] ATP (300 CPM pmol^− 1), 1 mM DTT and the indicated concentrations of peptide substrate. Reactions were incubated at 30 °C and terminated by spotting onto P81 paper and immersion in 75 mM H3PO4. P81 filters were washed 3 × 10 min with H3PO4, rinsed with acetone, air-dried and incorporation of [γ-^32P] determined by Cherenkov counting. Results are expressed in U mg^− 1, where 1 U is defined as the incorporation of 1 nmol phosphate.min^− 1.
(§4) Fig. 2 Optimisation of PCTAIRE-1 substrate peptide. The in vitro phosphotransferase activity of 1 μg GST–PCTAIRE-1 (A) and 10 ng CDK2–cyclin A2 (B) was determined using a panel of CDK-tide derivatives (modifications from the parental peptide are underlined). Peptide conc. was varied over the range 0 > 100 μM and substrate saturation curves were fitted by non-linear regression to the Michaelis–Menten model. Fitted parameters [Km (μM) and Vmax (mU mg^− 1)] are listed in the adjoining table. (C) Based on the CDK-tide optimisation, derivatives of NSF-tide were synthesised (modifications underlined) and assayed for PCTAIRE-1 activity as described in (A + B). 100% GST–PCTAIRE-1 = 164 mU mg^− 1 and 100% CDK2–[…] = 940 U mg^− 1. (D) PCTAIRE-1 was immunoprecipitated from 2 mg of HEK293 lysate and kinase activity determined using 250 μM CDK-tide or the optimised substrate, PKS*PKARKKL (PCTAIRE-tide) as described in Materials and methods. Results are expressed as mean ± SEM and are representative of 3 independent experiments. […]

In the next assay the target is T2, CDK2–cyclin A2 (Homo sapiens, UniProt P20248+P24941).
T2 construct: made in house; host or cells: Escherichia coli
The experiment in a line: In vitro phosphotransferase (kinase) assay of rCDK2–cyclin A2 on peptide substrates. Format: biochemical. The following applies: for CDK2-cyclin A2 Vmax: Fig. 2B table. How it is done: PCTAIRE-1C-16 (sc-174) and PCTAIRE-1G6.1 (sc-53410) antibodies were from Santa Cruz Biotechnology. Cyclin Y antibody was from Proteintech. HA.11 (16B2) antibody was from Covance Research Products. The following antibodies were raised in sheep by the Division of Signal Transduction Therapy (DSTT, University of Dundee) against the indicated immunogens: PCTAIRE-1 (S552C, full length human 6×his-PCTAIRE-1), cyclin Y (S206D, full length human GST-cyclin Y). rCDK2–cyclin A2 was prepared by overexpression in Escherichia coli as previously described. Peptide substrates for kinase assays were synthesised by GL Biochem, and the peptide library was synthesised by Anaspec, Inc. [γ-^32P] ATP was from PerkinElmer. HRP-conjugated secondary antibodies were from Jackson Immunoresearch. Unless otherwise indicated all other reagents were from Sigma.
as §2, §3, §4

Assay [2] concerns GST–PCTAIRE-1. The assay is described as follows: In vitro phosphotransferase (kinase) assay of purified GST–PCTAIRE-1 on peptide substrates. To be noted: GST–PCTAIRE-1 from HEK293 vs CDK2–cyclin A2 from E. coli; data not shown. Format: biochemical, human. How it is done: as §1, §2, §3, §4
Another assay has as its target FLAG-WT–PCTAIRE-1 (human, UniProt Q00536-1 1-496). The assay is described as follows: cell-based or functional assay.
Where [3] appears, read: Fig. 2A, CDK-tide derivatives, Michaelis–Menten fit, 0.1 mM [γ-32P]ATP, 30 °C, 1 U = 1 nmol phosphate min-1.
Setting [4] is: Fig. 2A, CDK-tide derivatives, Michaelis–Menten non-linear regression, 0.1 mM [γ-32P]ATP, 30 °C, P81 paper, representative of 3 independent experiments.
Setting [5] is: CDK-tide derivatives, 10 ng CDK2–cyclin A2, peptide 0-100 μM, Michaelis–Menten fit, mean ± SEM.
The mark [6] stands for this setting: Fig. 2B, CDK-tide derivatives, 10 ng CDK2–cyclin A2, peptide 0-100 μM, Michaelis–Menten fit, 0.1 mM [γ-32P]ATP, 30 °C, mean ± SEM, representative of 3 independent experiments.

T1 sequence (Q00536 whole entry): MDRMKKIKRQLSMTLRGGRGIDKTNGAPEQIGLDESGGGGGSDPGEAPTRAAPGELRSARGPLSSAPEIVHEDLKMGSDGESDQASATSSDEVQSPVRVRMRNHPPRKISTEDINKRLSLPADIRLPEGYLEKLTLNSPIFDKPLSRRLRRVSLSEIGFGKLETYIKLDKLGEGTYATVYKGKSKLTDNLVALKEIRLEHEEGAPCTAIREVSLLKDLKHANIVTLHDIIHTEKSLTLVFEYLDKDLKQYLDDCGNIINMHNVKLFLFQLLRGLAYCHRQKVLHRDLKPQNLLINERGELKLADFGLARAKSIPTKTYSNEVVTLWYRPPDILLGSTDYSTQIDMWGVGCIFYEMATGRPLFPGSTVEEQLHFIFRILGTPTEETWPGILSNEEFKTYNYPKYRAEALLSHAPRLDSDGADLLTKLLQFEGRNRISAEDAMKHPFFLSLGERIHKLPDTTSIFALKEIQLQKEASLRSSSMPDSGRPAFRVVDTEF
Chain of FLAG-WT–PCTAIRE-1 (Q00536 whole entry): as above

In the case of “FIKICSPDKMIGRRR [peptide around Ser569 of human NSF with three extra C-terminal Arg]”, on GST–PCTAIRE-1 [1] (Fig. 2C, NSF-tide derivatives, Michaelis–Menten fit, 0.1 mM [γ-32P]ATP, 30 °C), the Km stood at 15 ± 6 µM. Besides, the “GST-PCTAIRE-1 Vmax” value at GST–PCTAIRE-1 [1] (Fig. 2C, NSF-tide derivatives, Michaelis–Menten fit) was found to be 34 ± 4 mU.mg^-1.
“PKSPKARKKL [optimal PCTAIRE-1 substrate peptide …, modified from the parental CDK substrate peptide]”: the “GST-PCTAIRE-1 Vmax” value on GST–PCTAIRE-1 [1] (setting [3]) was 550 ± 19 mU.mg^-1; at GST–PCTAIRE-1 [1] (Fig. 2A, CDK-tide derivatives, Michaelis–Menten fit, 0.1 mM [γ-32P]ATP, 30 °C, 1 U = 1 nmol phosphate min-1, listed as PKSPKARKKL), ~ 550 mU.mg^-1. For the same molecule, the Michaelis-Menten constant (Km) is 4 ± 1 µM at GST–PCTAIRE-1 [1] (setting [4]) and ~4 µM at GST–PCTAIRE-1 [1] (Fig. 2A, CDK-tide derivatives, Michaelis–Menten non-linear regression, 0.1 mM [γ-32P]ATP, 30 °C, P81 paper, representative of 3 independent experiments, listed as PKSPKARKKL). The “CDK2-cyclin A2 Vmax” value at CDK2–cyclin A2 (setting [5]) was “No fit”. Moreover, the “CDK2-cyclin A2 Km” value on CDK2–cyclin A2 (setting [6]) was “No fit”.
As for “PKTPKKAKKL [generic CDK substrate peptide … derived from CDK phosphorylation sites of histone H1]”, on GST–PCTAIRE-1 [1] (setting [3]), the “GST-PCTAIRE-1 Vmax” value is recorded as 71 ± 7 mU.mg^-1. In addition, the Km on GST–PCTAIRE-1 [1] (setting [4]) was 23 ± 6 µM; on CDK2–cyclin A2 (setting [6]), ~20 µM and 19 µM. Further, the “Specific activity of PCTAIRE-1 towards the peptide, fold lower than that of CDK2–cyclin A2” value with GST–PCTAIRE-1 [2] is > 2000 fold. Also, the “CDK2-cyclin A2 Vmax” value on CDK2–cyclin A2 (setting [5]) stood at 1100 ± 54 U.mg^-1. The “CDK2–cyclin A2 Vmax as stated in text” value on CDK2–cyclin A2 (running text on Fig. 2B, one range stated for TPKKR, SPKKA and TPKKA together) was 1100–1500 mU mg^− 1.

B1: HA-cyclin Y (natural protein, human, UniProt Q8ND76-1 1-341, looked up)
chain: MGNTTSCCVSSSPKLRRNAHSRLESYRPDTDLSREDTGCNLQHISDRENIDDLNMEFNPSDHPRASTIFLSKSQTDVREKRKSLFINHHPPGQIARKYSSCSTIFLDDSTVSQPNLKYTIKCVALAIYYHIKNRDPDGRMLLDIFDENLHPLSKSEVPPDYDKHNPEQKQIYRFVRTLFSAAQLTAECAIVTLVYLERLLTYAEIDICPANWKRIVLGAILLASKVWDDQAVWNVDYCQILKDITVEDMNELERQFLELLQFNINVPSSVYAKYYFDLRSLAEANNLSFPLEPLSRERAHKLEAISRLCEDKYKDLRRSARKRSASADNLTLPRWSPAIIS
B1: the “PCTAIRE-1 kinase activity of the immunoprecipitates towards 50 μM PCTAIRE-tide, with co-expressed cyclin Y against without” value with FLAG-WT–PCTAIRE-1 is > 100 fold.

Values taken from PMC3590450, “Analysis of substrate specificity and cyclin Y binding of PCTAIRE-1 kinase” (Cellular Signalling, 2012).
